Measurements reported in PMC8638259 (Biochemistry, 2021).
Several values for one entry are separate records, joined by “and”; a condition that tells them apart may be missing. Equal entries are not always repeated. Entries after “also recorded” stand apart in the source; their conditions may differ. Where two headings read alike, the source gives them in different places. Marks after values point to notes of the source that are not given here.

What was measured:
human Mat2A [1] = molecular target: T1, human Mat2A (Homo sapiens, UniProt P31153); test: Isothermal titration calorimetry (ITC) binding to Mat2A; conditions: for binding to Mat2A (ITC): in the absence of ATP
T1 construct: His6 (N, cleaved yes); TEV protease cleavage site (N, cleaved yes); made in house; host or cells: E. coli BL21 STAR (DE3)
Experimental: Prior to performing ITC, proteins (approximately 1 mL volume) were dialyzed using D-Tube Dialyzers (Maxi 100–3000 μL, MWCO 6–8 kDa) (Novagen) against 1 L of buffer A for 2–4 h at 4 °C with agitation using a magnetic stirring bar. […] Titrations were performed at 20 °C. Protein concentrations were determined by A280 using a UV-2550 spectrophotometer. The protein and ligand concentrations that were used are indicated in the legends of Figures 5 and 6. ITC measurements were performed on a MicroCal PEAQ-ITC calorimeter (Malvern Panalytical). Data were analyzed using the MicroCal PEAQ-ITC analysis software supplied by the manufacturer using nonlinear regression with the One Set of Sites model. For each experiment, the heat produced or consumed associated with ligand dilution was measured and subtracted from the raw data.

Mat2A [2] = test system: T2, Mat2A; conditions: cited from earlier work
T2 construct: His6 (N, cleaved yes); TEV protease cleavage site (N, cleaved yes); made in house; host or cells: E. coli BL21 STAR (DE3)

Mat2A + Mat2B = test system: Mat2A + Mat2B; parameters: method as in PMID 28553945; conditions: after addition of Mat2B, cited from earlier work
human Mat2A [3] = molecular target: T1, human Mat2A; test: MESG EnzChek coupled phosphate detection assay (assay 1), Mat2A initial rates; assay type: biochemical; parameters: key to type of inhibition (product inhibition) / inhibition pattern (dead-end inhibition): U indicates uncompetitive inhibition; NC indicates noncompetitive inhibition; conditions: for Km: average of five independent experiments ± SD
human Mat2A [4] = molecular target: T1, human Mat2A; test: LC-MS SAM detection assay (assay 2), Mat2A initial rates; assay type: biochemical; parameters: key to type of inhibition (product inhibition by phosphate): U indicates uncompetitive inhibition; NC indicates noncompetitive inhibition; conditions: pH 7.5, 22 °C; for Km: Mat2A only, single experiment, three replicates ± SE; for Ki: read-out: inhibition constant Kis (product inhibition by phosphate)
Text: In all cases, initial velocities were obtained from the linear regions of the reaction progress curves (<200 s, Figures S3C and S5).
The LC–MS assay monitors SAM directly and was developed to confirm the kinetic parameters that were obtained in the phosphate coupled assay and to carry out product inhibition studies by Pi, which was not possible using the phosphate coupled assay. The amount of SAM produced was quantified using a standard curve (Figure S3F). Prior to LC–MS, 1:1 methanol/acetonitrile + 0.1% (v/v) formic acid was added to the samples. LC–MS was performed using an Agilent 1200 LC system fitted with a Cogent Diamond Hydride Type C silica column (2.1 × 150 mm, dead volume 315 μL). Solvent A was LC–MS grade H2O + 0.1% (v/v) formic acid. Solvent B was acetonitrile + 0.1% (v/v) formic acid. The gradient started at 85% B dropping to 5% B over 14 min. Flow rate was 0.4 mL/min. Mass spectrometry was performed using an Agilent Accurate Mass 6230 TOF apparatus in positive-ion mode. The doubly charged SAM ion was detected at an m/z of 200.0759.
Product and dead-end inhibition data showing competitive, noncompetitive, or uncompetitive patterns were fitted to eqs 2–4, respectively. [drawing 2] 2 [drawing 3] 3 [drawing 4] 4 where I is the inhibitor concentration; S is the concentration of the variable substrate; Km is the Michaelis constant for the variable substrate; and Kis and Kii are the slope and intercept inhibition constants, respectively.
Saturation kinetics data were fitted to eq 5. [drawing 5] 5

Mat2A/Mat2B complex [5] = molecular target: T3, Mat2A/Mat2B complex (Homo sapiens, UniProt P31153); test: Coupled phosphate detection assay (assay 1) with the Mat2A/Mat2B complex; assay type: biochemical; conditions: for Km: Mat2A + Mat2B (250 nM Mat2A, 600 nM Mat2B), pH 7.5, 22 °C
T3 construct: His6 (N, cleaved yes); TEV protease cleavage site (N, cleaved yes); made in house; host or cells: E. coli BL21 STAR (DE3)

Mat2A/Mat2B complex [6] = molecular target: T3, Mat2A/Mat2B complex; test: Kinetic constants of Mat2A/Mat2B complex after preincubation at 37 °C; assay type: biochemical; conditions: 60 nM Mat2A + 30 nM Mat2B preincubated 15 min at 37 °C; assay at pH 7.5, 22 °C; ATP 1.25 mM; read-out: Km(L-Met)
Mat2A [7] = test system: T2, Mat2A; test: Stability assay: Mat2A activity after preincubation at 37 °C; assay type: biochemical, human
Mat2B (Homo sapiens) = Mat2B (Homo sapiens) (UniProt Q9NZL9); conditions: cited from earlier work
[8] = saturating Mat2B, ATP varied, saturating L-Met 600 μM
[9] = variable substrate ATP, saturating L-Met 0.6 mM
[10] = variable substrate L-Met, saturating ATP 0.5 or 1 mM

CSCC[C@H](N)C(=O)O [L-Met, L-methionine]
binding to Mat2A (ITC) (human Mat2A [1]; ITC, 20 °C): No significant change in heat; also recorded: No binding | Km (Mat2A [2]; without Mat2B, read-out: Km for L-Met): 14 µM | Km (Mat2A + Mat2B; read-out: Km for L-Met): 2500 nM | Km (human Mat2A [3]; Mat2A only, pH 7.5, 22 °C, read-out: Km(L-Met)): 5 ± 2 µM | Km (human Mat2A [4]; read-out: Km(L-Met)): 8 ± 2 µM | Km (Mat2A/Mat2B complex [5]; read-out: Km(L-Met)): 4 ± 1 µM | Km (Mat2A/Mat2B complex [6]): 3.9 ± 0.1 µM | Km (Mat2A [7]; Mat2A only (60 nM) preincubated 15 min at 37 °C, assay at pH 7.5, 22 °C, ATP 1.25 mM, read-out: Km(L-Met)): 3.5 ± 1.3 µM

NC1(C(=O)O)CCCC1 [L-cLeu, L-cycloleucine, reference compound]
binding to Mat2A (ITC) (human Mat2A [1]; ITC, 20 °C): no significant change in heat | binding to Mat2A (ITC) (human Mat2A [1]; ITC, 20 °C, listed as Cycloleucine): No binding | Kd (human Mat2A [1]; ITC, 20 °C, in the presence of 2 mM ATP): 25 ± 10 µM | extent of inhibition of Mat2A (human Mat2A [3]): fully inhibit | substrate activity for Mat2A (human Mat2A [3]): not a substrate | inhibition pattern (dead-end inhibition) (human Mat2A [3]; variable substrate ATP, nonsaturating L-Met = 0.02 mM, pH 7.5, 22 °C): U | Ki (human Mat2A [3]; variable substrate L-Met, nonsaturating ATP = 0.07 mM, pH 7.5, 22 °C, read-out: inhibition constant Kis (dead-end inhibition)): 160 µM | Ki (human Mat2A [3]; variable substrate L-Met, saturating ATP = 1 mM, pH 7.5, 22 °C, read-out: inhibition constant Kis (dead-end inhibition)): 290 µM

C[S+](CC[C@H](N)C(=O)[O-])C[C@H]1O[C@@H](n2cnc3c(N)ncnc32)[C@H](O)[C@@H]1O (stereo partly drawn) [SAM, S-adenosyl-L-methionine]
IC50 (Mat2A [2]; without Mat2B, read-out: IC50 of product inhibition by SAM): ~300 µM | IC50 (Mat2A + Mat2B; read-out: IC50 of product inhibition by SAM): ~150 µM | type of inhibition (product inhibition) (human Mat2A [3]; variable substrate ATP, nonsaturating L-Met (0.02 mM), pH 7.5, 22 °C): NC ^c | Ki (human Mat2A [3]; variable substrate ATP, nonsaturating L-Met (0.02 mM), pH 7.5, 22 °C, read-out: inhibition constant Kis (product inhibition)): 620 µM | type of inhibition (product inhibition) (human Mat2A [3]; variable substrate ATP, saturating L-Met 0.6 mM, pH 7.5, 22 °C): U ^b | type of inhibition (product inhibition) (human Mat2A [3]; variable substrate L-Met, nonsaturating ATP (0.07 mM), pH 7.5, 22 °C): NC ^c | Ki (human Mat2A [3]; variable substrate L-Met, nonsaturating ATP (0.07 mM), pH 7.5, 22 °C, read-out: inhibition constant Kis (product inhibition)): 250 µM | type of inhibition (product inhibition) (human Mat2A [3]; variable substrate L-Met, saturating ATP 0.5 or 1 mM, pH 7.5, 22 °C): NC ^b | Ki (human Mat2A [3]; variable substrate L-Met, saturating ATP 0.5 or 1 mM, pH 7.5, 22 °C, read-out: inhibition constant Kis (product inhibition)): 190 µM | Kii(SAM) (Mat2A/Mat2B complex [5]; [8]): 130 ± 40 µM | type of inhibition by SAM (Mat2A/Mat2B complex [5]; [8]): uncompetitive | increase in the potency of SAM inhibition in the presence of Mat2B (Mat2A/Mat2B complex [5]; versus Mat2A alone): 1.8 fold

Nc1ncnc2c1ncn2[C@@H]1O[C@H](COP(=O)(O)OP(=O)(O)OP(=O)(O)O)[C@@H](O)[C@H]1O [ATP, adenosine 5′-triphosphate]
Kd (human Mat2A [1]): 80 ± 30 µM | Ki (human Mat2A [3]; Mat2A only, dissociation constant of enzyme-ATP complex from eq 1, pH 7.5, 22 °C, read-out: Ki(ATP)): 349 ± 66 µM | Km (human Mat2A [3]; Mat2A only, pH 7.5, 22 °C, read-out: Km(ATP)): 50 ± 10 µM | Km (human Mat2A [4]; read-out: Km(ATP)): 55 ± 10 µM | Km (Mat2A/Mat2B complex [5]; read-out: Km(ATP)): 50 ± 5 µM

Mat1A (from UniProt Q00266)
Kd (Mat2B (Homo sapiens)): 3000 nM

Mat2A: recombinant full-length human methionine adenosyltransferase Mat2A (UniProt P31153)
kcat reported by other groups (Mat2A [2]; different assay methods): 0.27 s^–1 and 0.35 s^–1 | time to 50% loss of activity (Mat2A [7]; 60 nM Mat2A preincubated in assay buffer at 37 °C, no substrates, no Mat2B): 2.3 min | kcat (Mat2A [7]; Mat2A only (60 nM) preincubated 15 min at 37 °C, assay at pH 7.5, 22 °C): 0.09 ± 0.005 ^b s^–1

O=P(O)(O)O [phosphate, inorganic phosphate]
inhibition constant Kii (product inhibition by phosphate) (human Mat2A [4]; [9]): Kii = 5740 ± 760 ^b μM | type of inhibition (product inhibition by phosphate) (human Mat2A [4]; [9]): NC ^b | Ki (human Mat2A [4]; [9]): 1.29 mM | inhibition constant Kii (product inhibition by phosphate) (human Mat2A [4]; [10]): Kii = 4970 ± 770 ^b μM | type of inhibition (product inhibition by phosphate) (human Mat2A [4]; [10]): NC ^b | Ki (human Mat2A [4]; [10]): 1.58 mM
